{
  "source": "ChEMBL document CHEMBL5465560",
  "about": "“Selectivity Literature for EUbOPEN Chemogenomic Library” (2024)",
  "key": {"[1]": {"target": "T1, Muscle, skeletal receptor tyrosine-protein kinase (Homo sapiens) (UniProt O15146)", "T1 sequence (whole entry)": "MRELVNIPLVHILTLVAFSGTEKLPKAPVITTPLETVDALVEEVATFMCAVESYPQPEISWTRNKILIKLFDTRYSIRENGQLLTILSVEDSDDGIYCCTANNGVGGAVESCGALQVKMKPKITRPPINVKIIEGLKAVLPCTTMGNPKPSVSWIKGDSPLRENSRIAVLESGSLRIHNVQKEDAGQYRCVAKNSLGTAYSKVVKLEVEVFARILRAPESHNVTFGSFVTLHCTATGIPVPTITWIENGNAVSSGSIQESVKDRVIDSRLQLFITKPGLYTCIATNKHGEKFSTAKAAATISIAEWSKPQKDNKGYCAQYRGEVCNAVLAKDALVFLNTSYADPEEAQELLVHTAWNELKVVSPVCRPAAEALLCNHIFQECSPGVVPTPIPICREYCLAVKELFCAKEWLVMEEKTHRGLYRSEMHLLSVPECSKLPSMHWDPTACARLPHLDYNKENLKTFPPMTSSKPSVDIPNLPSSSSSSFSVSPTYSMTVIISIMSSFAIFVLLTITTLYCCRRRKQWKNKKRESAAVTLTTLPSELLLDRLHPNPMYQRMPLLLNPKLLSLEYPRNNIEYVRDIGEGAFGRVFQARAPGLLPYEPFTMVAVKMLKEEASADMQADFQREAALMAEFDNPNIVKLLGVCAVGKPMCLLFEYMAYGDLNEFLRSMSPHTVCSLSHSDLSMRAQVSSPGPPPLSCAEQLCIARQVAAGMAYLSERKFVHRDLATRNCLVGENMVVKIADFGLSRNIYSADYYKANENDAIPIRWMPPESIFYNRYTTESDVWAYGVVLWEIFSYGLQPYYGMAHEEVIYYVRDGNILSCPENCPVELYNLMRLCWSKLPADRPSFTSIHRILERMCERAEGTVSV", "experiment": "Selectivity interaction (KinomeScan (DiscoverX)) EUB0000092b MUSK", "settings": "at 10 µM"}, "[2]": {"target": "T2, Protein kinase C iota type (Homo sapiens) (UniProt P41743)", "T2 sequence (whole entry)": "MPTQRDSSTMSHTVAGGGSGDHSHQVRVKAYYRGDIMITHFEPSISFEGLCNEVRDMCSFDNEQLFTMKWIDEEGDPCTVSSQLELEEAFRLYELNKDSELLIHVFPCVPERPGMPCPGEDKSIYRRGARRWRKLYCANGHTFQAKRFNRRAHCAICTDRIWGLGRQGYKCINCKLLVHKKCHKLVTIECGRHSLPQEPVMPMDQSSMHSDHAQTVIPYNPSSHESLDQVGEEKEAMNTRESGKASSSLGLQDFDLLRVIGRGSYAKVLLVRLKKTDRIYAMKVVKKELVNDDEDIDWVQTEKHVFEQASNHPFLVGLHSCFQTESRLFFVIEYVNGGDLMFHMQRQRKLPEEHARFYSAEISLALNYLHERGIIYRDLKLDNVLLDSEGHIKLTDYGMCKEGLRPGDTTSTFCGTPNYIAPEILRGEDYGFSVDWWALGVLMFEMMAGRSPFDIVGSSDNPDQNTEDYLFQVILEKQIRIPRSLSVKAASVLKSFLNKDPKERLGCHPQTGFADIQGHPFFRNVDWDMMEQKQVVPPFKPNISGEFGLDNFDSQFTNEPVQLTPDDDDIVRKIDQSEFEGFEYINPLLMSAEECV", "settings": "at 10 µM"}, "[3]": {"target": "TRAF2 and NCK-interacting protein kinase (Homo sapiens) (UniProt Q9UKE5)", "sequence (Q9UKE5 whole entry, looked up)": "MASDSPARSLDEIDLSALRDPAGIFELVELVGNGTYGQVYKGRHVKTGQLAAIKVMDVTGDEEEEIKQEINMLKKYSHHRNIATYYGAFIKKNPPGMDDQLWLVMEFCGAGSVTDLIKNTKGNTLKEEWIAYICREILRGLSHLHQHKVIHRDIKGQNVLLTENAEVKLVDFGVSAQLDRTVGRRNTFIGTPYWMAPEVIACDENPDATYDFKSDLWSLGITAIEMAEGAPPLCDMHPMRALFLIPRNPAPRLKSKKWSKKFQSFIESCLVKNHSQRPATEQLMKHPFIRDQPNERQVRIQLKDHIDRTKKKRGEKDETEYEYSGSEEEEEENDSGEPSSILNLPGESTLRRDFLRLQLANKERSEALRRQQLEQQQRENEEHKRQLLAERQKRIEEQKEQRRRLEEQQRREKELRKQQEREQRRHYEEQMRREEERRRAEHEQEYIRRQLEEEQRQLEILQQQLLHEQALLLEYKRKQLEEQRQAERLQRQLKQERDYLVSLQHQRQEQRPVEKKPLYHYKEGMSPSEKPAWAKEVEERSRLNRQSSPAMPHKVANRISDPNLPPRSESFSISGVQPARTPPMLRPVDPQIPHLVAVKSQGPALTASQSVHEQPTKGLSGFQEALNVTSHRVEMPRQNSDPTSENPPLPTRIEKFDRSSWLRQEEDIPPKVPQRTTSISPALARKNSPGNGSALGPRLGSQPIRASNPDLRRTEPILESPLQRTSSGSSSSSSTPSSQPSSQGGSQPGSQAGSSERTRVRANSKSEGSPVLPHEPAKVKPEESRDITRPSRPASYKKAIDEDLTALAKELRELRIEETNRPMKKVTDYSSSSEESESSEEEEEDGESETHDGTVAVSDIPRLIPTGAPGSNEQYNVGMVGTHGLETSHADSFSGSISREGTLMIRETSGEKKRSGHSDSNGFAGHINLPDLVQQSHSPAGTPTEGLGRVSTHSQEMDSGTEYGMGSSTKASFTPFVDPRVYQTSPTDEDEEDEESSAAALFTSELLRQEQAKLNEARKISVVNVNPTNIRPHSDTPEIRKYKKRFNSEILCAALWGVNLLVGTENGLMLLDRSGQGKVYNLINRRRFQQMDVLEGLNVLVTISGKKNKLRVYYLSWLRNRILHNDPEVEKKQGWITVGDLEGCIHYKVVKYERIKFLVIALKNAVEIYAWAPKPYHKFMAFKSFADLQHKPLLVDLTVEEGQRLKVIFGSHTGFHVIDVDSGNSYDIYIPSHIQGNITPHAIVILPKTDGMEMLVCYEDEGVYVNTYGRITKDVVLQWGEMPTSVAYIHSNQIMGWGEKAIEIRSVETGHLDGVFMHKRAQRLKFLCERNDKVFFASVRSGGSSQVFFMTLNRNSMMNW", "experiment": "Selectivity interaction (ActivX KiNativ screen (ex vivo kinase selectivity in human PBMCs)) EUB0001619a TNIK", "format": "cell-based", "settings": "PBMC, at 1 µM"}, "[4]": {"target": "T3, Ephrin type-A receptor 6 (Homo sapiens) (UniProt Q9UF33)", "T3 sequence (whole entry)": "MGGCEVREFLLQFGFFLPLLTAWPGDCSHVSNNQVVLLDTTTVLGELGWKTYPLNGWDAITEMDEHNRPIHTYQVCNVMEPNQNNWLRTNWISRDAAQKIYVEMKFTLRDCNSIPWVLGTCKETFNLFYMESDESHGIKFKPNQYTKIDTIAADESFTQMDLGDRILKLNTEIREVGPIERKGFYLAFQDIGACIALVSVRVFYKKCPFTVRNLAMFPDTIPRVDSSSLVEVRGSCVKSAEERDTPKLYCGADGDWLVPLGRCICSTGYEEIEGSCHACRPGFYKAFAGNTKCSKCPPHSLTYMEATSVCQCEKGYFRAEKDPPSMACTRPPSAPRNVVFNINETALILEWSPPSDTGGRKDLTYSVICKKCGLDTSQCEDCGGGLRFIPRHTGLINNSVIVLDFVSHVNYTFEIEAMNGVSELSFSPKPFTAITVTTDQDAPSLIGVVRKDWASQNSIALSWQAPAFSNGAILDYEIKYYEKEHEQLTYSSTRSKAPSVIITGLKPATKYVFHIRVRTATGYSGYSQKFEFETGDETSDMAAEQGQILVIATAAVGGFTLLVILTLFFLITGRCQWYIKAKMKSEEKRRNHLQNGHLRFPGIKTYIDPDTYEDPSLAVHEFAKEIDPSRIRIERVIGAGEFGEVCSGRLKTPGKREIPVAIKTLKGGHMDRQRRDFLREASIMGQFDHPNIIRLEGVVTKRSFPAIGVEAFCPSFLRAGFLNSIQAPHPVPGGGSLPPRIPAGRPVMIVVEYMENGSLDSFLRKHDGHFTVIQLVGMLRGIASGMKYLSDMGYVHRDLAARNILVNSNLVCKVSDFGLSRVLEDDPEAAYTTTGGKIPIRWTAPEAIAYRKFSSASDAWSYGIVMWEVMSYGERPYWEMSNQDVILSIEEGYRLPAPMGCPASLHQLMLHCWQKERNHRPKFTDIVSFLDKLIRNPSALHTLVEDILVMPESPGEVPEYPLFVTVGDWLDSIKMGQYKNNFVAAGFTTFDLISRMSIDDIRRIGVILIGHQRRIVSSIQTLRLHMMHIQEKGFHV", "experiment": "Selectivity interaction (KinomeScan (DiscoverX)) EUB0000607a EPHA6", "settings": "at 10 µM"}, "[5]": {"target": "Mitogen-activated protein kinase 8 (Homo sapiens, UniProt P45983)", "sequence (P45983 whole entry)": "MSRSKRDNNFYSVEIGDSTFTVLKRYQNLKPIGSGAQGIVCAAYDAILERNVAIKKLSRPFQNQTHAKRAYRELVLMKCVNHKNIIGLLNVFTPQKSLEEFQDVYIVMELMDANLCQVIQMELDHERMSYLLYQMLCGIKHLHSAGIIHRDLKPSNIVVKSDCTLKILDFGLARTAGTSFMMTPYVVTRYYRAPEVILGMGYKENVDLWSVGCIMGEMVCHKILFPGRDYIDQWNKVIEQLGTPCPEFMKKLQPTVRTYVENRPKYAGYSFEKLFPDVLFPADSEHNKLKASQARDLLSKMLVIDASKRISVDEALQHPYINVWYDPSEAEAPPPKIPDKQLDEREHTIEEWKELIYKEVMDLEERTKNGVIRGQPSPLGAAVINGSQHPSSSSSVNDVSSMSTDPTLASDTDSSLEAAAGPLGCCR", "experiment": "Selectivity interaction (SelectScreen profiling (Invitrogen)) EUB0000607a MAPK8", "settings": "at 2 µM"}, "[6]": {"target": "Insulin receptor-related protein (Homo sapiens) (UniProt P14616)", "sequence (P14616 27-742 limits assumed)": "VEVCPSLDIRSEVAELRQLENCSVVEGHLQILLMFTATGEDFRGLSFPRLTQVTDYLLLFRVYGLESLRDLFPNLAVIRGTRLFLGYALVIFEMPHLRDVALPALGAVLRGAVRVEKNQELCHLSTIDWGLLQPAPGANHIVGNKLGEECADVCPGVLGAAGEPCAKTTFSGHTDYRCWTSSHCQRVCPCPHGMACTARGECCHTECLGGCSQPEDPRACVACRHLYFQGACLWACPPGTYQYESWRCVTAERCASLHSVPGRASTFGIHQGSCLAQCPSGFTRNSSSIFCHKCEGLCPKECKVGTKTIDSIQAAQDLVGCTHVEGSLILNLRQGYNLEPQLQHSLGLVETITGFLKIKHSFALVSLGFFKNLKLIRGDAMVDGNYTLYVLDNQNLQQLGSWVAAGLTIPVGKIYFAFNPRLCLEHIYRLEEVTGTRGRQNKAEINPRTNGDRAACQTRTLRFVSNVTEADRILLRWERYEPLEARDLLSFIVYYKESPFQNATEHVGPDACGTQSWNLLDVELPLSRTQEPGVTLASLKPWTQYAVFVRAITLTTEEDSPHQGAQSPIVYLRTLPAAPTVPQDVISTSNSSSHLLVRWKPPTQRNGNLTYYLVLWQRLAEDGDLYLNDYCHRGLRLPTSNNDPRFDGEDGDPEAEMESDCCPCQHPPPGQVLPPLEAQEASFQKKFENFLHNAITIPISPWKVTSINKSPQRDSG", "sequence (P14616 747-1297 limits assumed)": "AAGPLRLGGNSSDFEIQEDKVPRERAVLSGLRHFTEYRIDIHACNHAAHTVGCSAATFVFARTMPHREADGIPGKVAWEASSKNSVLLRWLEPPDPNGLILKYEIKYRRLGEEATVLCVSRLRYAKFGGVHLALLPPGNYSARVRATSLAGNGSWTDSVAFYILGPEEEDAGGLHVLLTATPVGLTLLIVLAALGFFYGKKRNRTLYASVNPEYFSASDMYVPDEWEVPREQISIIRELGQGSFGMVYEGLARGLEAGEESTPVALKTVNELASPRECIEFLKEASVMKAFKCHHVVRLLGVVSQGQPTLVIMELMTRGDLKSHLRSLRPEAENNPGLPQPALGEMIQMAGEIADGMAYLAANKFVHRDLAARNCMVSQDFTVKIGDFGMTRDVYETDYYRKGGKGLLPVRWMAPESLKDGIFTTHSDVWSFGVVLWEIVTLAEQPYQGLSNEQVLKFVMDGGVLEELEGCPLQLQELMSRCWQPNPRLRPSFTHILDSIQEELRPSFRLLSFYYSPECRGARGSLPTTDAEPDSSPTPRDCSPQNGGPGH", "experiment": "Selectivity interaction (KinomeScan (DiscoverX)) EUB0000607a INSRR", "settings": "at 10 µM"}, "[7]": {"target": "CDK7/Cyclin H/MNAT1 (Homo sapiens) (UniProt P51946+P50613+P51948)", "experiment": "Selectivity interaction (ProQinase) EUB0000171b CDK7", "format": "protein-complex assay"}},
  "data": [
    {"smiles": "CCC(=O)N1CCN(c2ccc(-n3c(=O)ccc4cnc5ccc(-c6cnc7ccccc7c6)cc5c43)cc2C(F)(F)F)CC1", "values": [
      {"measurement": "% of control", "setting": "[1]", "result": 100, "unit": "%"}
    ]},
    {"smiles": "Cc1cc([C@@H](C)Nc2ccccc2C(=O)O)c2nc(N3CCOCC3)cc(=O)n2c1", "note": "[AZD-6482]", "values": [
      {"measurement": "% of control", "setting": "[2]", "result": 100, "unit": "%"}
    ]},
    {"smiles": "N#Cc1cccc(-c2c[nH]c3ncnc(N4CCOCC4)c23)c1", "values": [
      {"measurement": "% of inhibition", "setting": "[3]", "result": 29, "unit": "%"}
    ]},
    {"smiles": "CNC(=O)Nc1ccc(-c2nc(N3CC4CCC(C3)O4)c3cnn(C4CCC5(CC4)OCCO5)c3n2)cc1", "values": [
      {"measurement": "% of control", "setting": "[4]", "result": 98, "unit": "%"},
      {"measurement": "% of inhibition", "setting": "[5]", "result": 12, "unit": "%"},
      {"measurement": "% of control", "setting": "[6]", "result": 100, "unit": "%"}
    ]},
    {"smiles": "C=CC(=O)Nc1cccc(C(=O)Nc2ccc(Nc3cc(-c4[nH]c(SC)nc4C)ccn3)cc2)c1", "values": [
      {"measurement": "% of control", "setting": "[7]; at 1 µM", "result": 89, "unit": "%"},
      {"measurement": "% of control", "setting": "[7]; at 5 µM", "result": 86, "unit": "%"}
    ]}
  ]
}
